Measured values as given in ChEMBL document CHEMBL1127215, “()-7-deazaaristeromycin lacking the hydroxymethyl substituent” (Bioorg Med Chem Lett, 1993).
Converted amounts (≈) assume the structure as drawn.

Columns and labels:
E6SM [1] = assay: Tested for antiviral activity against HSV-1 (KOS) in E6SM cells; format: functional; conditions: Homo sapiens
E6SM [2] = assay: Tested for antiviral activity against HSV-2 (G) in E6SM cells; format: functional; conditions: Homo sapiens
E6SM [3] = assay: Tested for antiviral activity against TK-HSV-1 (B2006) in E6SM cells; format: functional; conditions: Homo sapiens
E6SM [4] = assay: Tested for toxicity against morphology of E6SM cells; format: functional; conditions: Homo sapiens
HeLa [5] = assay: Tested for antiviral activity against respiratory syncytial (long) in HeLa cells; format: functional; conditions: Homo sapiens
HeLa [6] = assay: Tested for toxicity against morphology of HeLa cells; format: functional; conditions: Homo sapiens
HeLa [7] = assay: Tested for antiviral activity against coxsackie B4 in HeLa cells; format: functional; conditions: Homo sapiens
HEL [8] = assay: Tested for anti-HCMV activity using AD-169 and Davis strains in HEL cells; format: functional; conditions: Homo sapiens
HEL [9] = assay: Tested for effect on HEL cells growth viability for anti-HCMV activity; format: functional; conditions: Homo sapiens
MDCK = assay: Tested for toxicity against morphology of MDCK cells; format: functional; conditions: Canis lupus familiaris
MT4 [10] = assay: Tested for antiviral activity against HIV-1 (IIIB/LAI) in MT-4 cells; format: functional; conditions: Homo sapiens
MT4 [11] = assay: Tested for antiviral activity against HIV-2 (ROD) in MT-4 cells; format: functional; conditions: Homo sapiens
MT4 [12] = assay: Tested for toxicity against growth/viability of MT-4 cells; format: functional; conditions: Homo sapiens
Adenosylhomocysteinase = Adenosylhomocysteinase (Homo sapiens, UniProt P23526); assay: Tested for inhibitory concentration against S-adenosyl-homocysteine hydrolase
Vero [13] = assay: Tested for toxicity against morphology of vero cells; format: functional; conditions: Chlorocebus sabaeus
Vero [14] = assay: Tested for antiviral activity against Junin in vero cells; format: functional; conditions: Chlorocebus sabaeus
Vero [15] = assay: Tested for antiviral activity against forest in vero cells; format: functional; conditions: Chlorocebus sabaeus
Vero [16] = assay: Tested for antiviral activity against Sindbis in vero cells; format: functional; conditions: Chlorocebus sabaeus
Vero [17] = assay: Tested for antiviral activity against Tacaribe in vero cells; format: functional; conditions: Chlorocebus sabaeus
Vero [18] = assay: Tested for antiviral activity against coxsackie B4 in vero cells; format: functional; conditions: Chlorocebus sabaeus
Vero [19] = assay: Tested for antiviral activity against parainfluenza 3 (VR-93) in vero cells; format: functional; conditions: Chlorocebus sabaeus
Vero [20] = assay: Tested for antiviral activity against reo-1 in vero cells; format: functional; conditions: Chlorocebus sabaeus

Chain of Adenosylhomocysteinase (P23526 whole entry): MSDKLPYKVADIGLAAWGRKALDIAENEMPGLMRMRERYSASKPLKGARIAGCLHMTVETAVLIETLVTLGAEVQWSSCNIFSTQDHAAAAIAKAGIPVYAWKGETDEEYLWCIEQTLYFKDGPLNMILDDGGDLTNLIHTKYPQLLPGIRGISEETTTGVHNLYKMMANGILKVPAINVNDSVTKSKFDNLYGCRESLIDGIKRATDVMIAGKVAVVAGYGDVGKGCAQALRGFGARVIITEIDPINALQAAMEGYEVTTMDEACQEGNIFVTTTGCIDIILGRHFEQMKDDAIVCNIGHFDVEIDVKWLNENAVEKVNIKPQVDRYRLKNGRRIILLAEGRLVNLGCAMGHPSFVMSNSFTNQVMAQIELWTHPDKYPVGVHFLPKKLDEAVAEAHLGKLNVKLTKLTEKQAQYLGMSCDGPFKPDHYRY

Compound `Nc1ncnc2c1ccn2C1CCC(O)C1O` (stereo not given) has an MIC50 (E6SM [1]) greater than 200 µg/mL, an MIC50 (E6SM [2]) greater than 200 µg/mL and an MIC50 (E6SM [3]) greater than 200 µg/mL. For the same compound, the MIC50 (E6SM [4]) was greater than 200 µg/mL, the MIC50 (HeLa [5]) was greater than 100 µg/mL and the MIC50 (HeLa [6]) was greater than 200 µg/mL. For the same compound, the MIC50 (HeLa [7]) was greater than 200 µg/mL, the MIC50 (HEL [8]) was 18 µg/mL (≈ 76.8 µM) and the MIC50 (HEL [9]) was 130 µg/mL (≈ 555 µM). It also gave an MIC50 (MDCK) greater than 100 µg/mL, an MIC50 (MT4 [10]) greater than 130 µg/mL and an MIC50 (MT4 [11]) greater than 130 µg/mL. The MIC50 (MT4 [12]) was greater than 130 µg/mL, the IC50 (Adenosylhomocysteinase) was greater than 100000 nM and the MIC50 (Vero [13]) was greater than 200 µg/mL. For the same compound, the MIC50 (Vero [14]) was 84 µg/mL (≈ 359 µM), the MIC50 (Vero [15]) was greater than 200 µg/mL and the MIC50 (Vero [16]) was greater than 200 µg/mL. It also gave an MIC50 (Vero [17]) of 64 µg/mL (≈ 273 µM), an MIC50 (Vero [18]) greater than 200 µg/mL and an MIC50 (Vero [19]) of 150 µg/mL (≈ 640 µM). For the same compound, the MIC50 (Vero [20]) was greater than 200 µg/mL.
With `Nc1ccnc2c1ncn2[C@@H]1C[C@H](CO)[C@@H](O)[C@H]1O` the IC50 (Adenosylhomocysteinase) was 18 nM.
For `Nc1ncnc2c1ncn2C[C@H](O)CO` [(S)-DHPA], the IC50 (Adenosylhomocysteinase) was 280 nM.
`Nc1ncnc2c1ncn2[C@@H]1C=C(CO)[C@@H](O)[C@H]1O` [NEOPLANOCIN A] showed an IC50 (Adenosylhomocysteinase) of 7.2 nM.
